Experimental data as given in patent US5085995A, “Method for producing saffron stigma-like tissue and method for producing useful components from saffron stigma-like tissue” (Somar Corporation, priority 1989, dated 1992).

Legend:
[1] = test system: female organ and/or corolla tube of saffron; experiment: Tissue culture of female organ and/or corolla tube of saffron in the presence of alanine; type: cell-based; details: compared with cultures in the absence of alanine
Description: In this embodiment, a female organ and/or a corolla tube of a saffron flower is tissue-cultured in a medium containing a plant hormone and alanine in a bright or dark room.
Female organs and/or corolla tubes to be cultured are harvested from saffron flowers before opening, i.e., flowers in the bud and subjected to tissue culture in the manner as in the first embodiment by using a medium containing alanine to produce and proliferate the stigma-like tissue. When using female organs and/or corolla tubes harvested after flower opening, the amount of the stigma-like tissue produced tends to be reduced.
In cases where female organs and/or corolla tubes are cultured in the second embodiment, the culture medium should further contain alanine to accelerate the production of the stigma-like tissue. Alanine is preferably added to a medium in concentrations of from about 0.005 to 10g/l, more preferably from 0.1 to 10g/l. The alanine to be added may be any of D- or L-optical isomers and a racemate.
Tissue culture according to the present invention can be performed either by static culture using a solid medium or by shake culture using a liquid medium. The solid medium includes a medium containing about 0.8% by weight of agar and a Murashige-Skoog medium containing 0.2% by weight of guaran. The culturing may be in either a bright room or a dark room. […]

[2] = test system: stigma of saffran; experiment: Tissue culture of saffron stigma with alanine; visual rating of stigma-like tissue (Example 7); type: cell-based; details: Ki 2 ppm, Linsmaier-Skoog medium, scale 0-10
Description: (§1) The relative amount of the stigma-like tissue was visually determined and rated according to an 11-part divided scale, taking an amount corresponding to the amount of naturally-occurring three stigmata containing saffron pigment as 10, nil as 0, and equally dividing the interval therebetween.
(§2) The relative color density of the stigma-like tissue was visually determined, and rated according to an 11-part divided scale, taking a density corresponding to the density of a naturally-occurring stigma containing saffron pigment as 10 and colorlessness as 0, and equally dividing the interval therebetween.
(§3) Guaran powder was then added to the medium in a concentration of 0.2% by weight. The medium was sterilized at 120° C. for 20 minutes in an autoclave. The sterilized medium was aloquated into sterile plastic plates having a diameter of 55 mm, followed by cooling to solidify.
(§4) A bud of a saffron flower before opening was harvested, sterilized by soaking in a 0.5 vol% sodium hypochlorite aqueous solution for 10 minutes, and washed with water. The ovary portion of the bud was taken out and cut to pieces of about 8 mm. Each cut piece was seeded on each of the above-prepared solid media.
(§5) After 7 weeks of culturing, the tissue cultures were visually observed and evaluated in the same manner as in Example 1.
(§6) A saffron ovary was cultured in the same manner as in Example 3, except for replacing the MS medium with a Linsmaier-Skoog medium to which Ki, NAA and alanine were added in the concentrations shown in Table 11.
The procedure of Example 4 was repeated except for replacing the ovary with a stigma of saffran.

[3] = test system: saffron ovary; experiment: Tissue culture of saffron ovary in Linsmaier-Skoog medium with alanine; visual rating of stigma-like tissue (Example 4); type: cell-based; details: Ki 2 ppm, scale 0-10
Description: as §1, §2, §3, §4
(§7) The ovary was subjected to static culture at 25° C. in a dark room. Production of a stigma-like tissue was recognized in the cultures in about 4 weeks at the soonest. In 7 weeks, the stigma-like tissue grew and assumed a red color, indicating considerable production of the saffron pigment.
as §5, §6

[4] = test system: undifferentiated callus of saffron bulb; details: undifferentiated callus culture of saffron bulb; symposium 1987; cited from earlier work
[5] = test system: corolla tube of a saffron; experiment: Tissue culture of saffron corolla tube with alanine; visual rating of stigma-like tissue (Example 5); type: cell-based; details: Ki 2 ppm, Linsmaier-Skoog medium, scale 0-10
Description: as §1, §2, §3, §4, §5, §6
The procedure of Example 4 was repeated except for replacing the ovary with a corolla tube of a saffron.

[6] = test system: saffron ovary; experiment: Tissue culture of saffron ovary in MS medium with alanine; visual rating of stigma-like tissue (Example 3); type: cell-based; details: BA 10 ppm, 7 weeks, scale 0-10
Description: as §1, §2, §3, §4, §7, §5

SMILES: C[C@H](N)C(=O)O (racemic) [Alanine, alanine]
- quantities of stigma-like tissue and the pigment [1]: larger quantities of stigma-like tissue and the pigment
- Relative Color Density of Stigma-Like Tissue Containing Saffron Pigment ([2]; alanine 0.1 g/l, NAA 0.1 ppm): 6
- Relative Production of Stigma-Like Tissue Containing Saffron Pigment ([2]; alanine 0.1 g/l, NAA 0.1 ppm): 3
- Relative Color Density of Stigma-Like Tissue Containing Saffron Pigment ([2]; alanine 0.1 g/l, NAA 1.0 ppm): 8
- Relative Production of Stigma-Like Tissue Containing Saffron Pigment ([2]; alanine 0.1 g/l, NAA 1.0 ppm): 4
- Relative Color Density of Stigma-Like Tissue Containing Saffron Pigment ([2]; alanine 1.0 g/l, NAA 0.1 ppm): 8
- Relative Production of Stigma-Like Tissue Containing Saffron Pigment ([2]; alanine 1.0 g/l, NAA 0.1 ppm): 4
- Relative Color Density of Stigma-Like Tissue Containing Saffron Pigment ([2]; alanine 1.0 g/l, NAA 1.0 ppm): 8
- Relative Production of Stigma-Like Tissue Containing Saffron Pigment ([2]; alanine 1.0 g/l, NAA 1.0 ppm): 4
- Relative Color Density of Stigma-Like Tissue Containing Saffron Pigment ([2]; alanine 5.0 g/l, NAA 0.1 ppm): 7
- Relative Production of Stigma-Like Tissue Containing Saffron Pigment ([2]; alanine 5.0 g/l, NAA 0.1 ppm): 4
- Relative Color Density of Stigma-Like Tissue Containing Saffron Pigment ([2]; alanine 5.0 g/l, NAA 1.0 ppm): 7
- Relative Production of Stigma-Like Tissue Containing Saffron Pigment ([2]; alanine 5.0 g/l, NAA 1.0 ppm): 4
- Relative Color Density of Stigma-Like Tissue Containing Saffron Pigment ([3]; alanine 0.01 g/l, NAA 0.1 ppm): 5
- Relative Production of Stigma-Like Tissue Containing Saffron Pigment ([3]; alanine 0.01 g/l, NAA 0.1 ppm): 3
- Relative Color Density of Stigma-Like Tissue Containing Saffron Pigment ([3]; alanine 0.01 g/l, NAA 1.0 ppm): 6
- Relative Production of Stigma-Like Tissue Containing Saffron Pigment ([3]; alanine 0.01 g/l, NAA 1.0 ppm): 3
- Relative Color Density of Stigma-Like Tissue Containing Saffron Pigment ([3]; alanine 0.1 g/l, NAA 0.1 ppm): 6
- Relative Production of Stigma-Like Tissue Containing Saffron Pigment ([3]; alanine 0.1 g/l, NAA 0.1 ppm): 4
- Relative Color Density of Stigma-Like Tissue Containing Saffron Pigment ([3]; alanine 0.1 g/l, NAA 1.0 ppm): 6
- Relative Production of Stigma-Like Tissue Containing Saffron Pigment ([3]; alanine 0.1 g/l, NAA 1.0 ppm): 4
- Relative Color Density of Stigma-Like Tissue Containing Saffron Pigment ([3]; alanine 1.0 g/l, NAA 0.1 ppm): 7
- Relative Production of Stigma-Like Tissue Containing Saffron Pigment ([3]; alanine 1.0 g/l, NAA 0.1 ppm): 5
- Relative Color Density of Stigma-Like Tissue Containing Saffron Pigment ([3]; alanine 1.0 g/l, NAA 1.0 ppm): 7
- Relative Production of Stigma-Like Tissue Containing Saffron Pigment ([3]; alanine 1.0 g/l, NAA 1.0 ppm): 5
- Relative Color Density of Stigma-Like Tissue Containing Saffron Pigment ([3]; alanine 5.0 g/l, NAA 0.1 ppm): 6
- Relative Production of Stigma-Like Tissue Containing Saffron Pigment ([3]; alanine 5.0 g/l, NAA 0.1 ppm): 5
- Relative Color Density of Stigma-Like Tissue Containing Saffron Pigment ([3]; alanine 5.0 g/l, NAA 1.0 ppm): 7
- Relative Production of Stigma-Like Tissue Containing Saffron Pigment ([3]; alanine 5.0 g/l, NAA 1.0 ppm): 5
- effect of addition of alanine to the medium [4]: discharge of a red substance into the medium
- Relative Color Density of Stigma-Like Tissue Containing Saffron Pigment ([5]; alanine 0.01 g/l, NAA 0.1 ppm): 6
- Relative Production of Stigma-Like Tissue Containing Saffron Pigment ([5]; alanine 0.01 g/l, NAA 0.1 ppm): 4
- Relative Color Density of Stigma-Like Tissue Containing Saffron Pigment ([5]; alanine 0.01 g/l, NAA 1.0 ppm): 6
- Relative Production of Stigma-Like Tissue Containing Saffron Pigment ([5]; alanine 0.01 g/l, NAA 1.0 ppm): 4
- Relative Color Density of Stigma-Like Tissue Containing Saffron Pigment ([5]; alanine 0.1 g/l, NAA 0.1 ppm): 7
- Relative Production of Stigma-Like Tissue Containing Saffron Pigment ([5]; alanine 0.1 g/l, NAA 0.1 ppm): 5
- Relative Color Density of Stigma-Like Tissue Containing Saffron Pigment ([5]; alanine 0.1 g/l, NAA 1.0 ppm): 7
- Relative Production of Stigma-Like Tissue Containing Saffron Pigment ([5]; alanine 0.1 g/l, NAA 1.0 ppm): 5
- Relative Color Density of Stigma-Like Tissue Containing Saffron Pigment ([5]; alanine 1.0 g/l, NAA 0.1 ppm): 7
- Relative Production of Stigma-Like Tissue Containing Saffron Pigment ([5]; alanine 1.0 g/l, NAA 0.1 ppm): 6
- Relative Color Density of Stigma-Like Tissue Containing Saffron Pigment ([5]; alanine 1.0 g/l, NAA 1.0 ppm): 7
- Relative Production of Stigma-Like Tissue Containing Saffron Pigment ([5]; alanine 1.0 g/l, NAA 1.0 ppm): 6
- Relative Color Density of Stigma-Like Tissue Containing Saffron Pigment ([5]; alanine 5.0 g/l, NAA 0.1 ppm): 7
- Relative Production of Stigma-Like Tissue Containing Saffron Pigment ([5]; alanine 5.0 g/l, NAA 0.1 ppm): 6
- Relative Color Density of Stigma-Like Tissue Containing Saffron Pigment ([5]; alanine 5.0 g/l, NAA 1.0 ppm): 7
- Relative Production of Stigma-Like Tissue Containing Saffron Pigment ([5]; alanine 5.0 g/l, NAA 1.0 ppm): 6
- Relative Color Density of Stigma-Like Tissue Containing Saffron Pigment ([6]; alanine 0.005 g/l, NAA 0.1 ppm): 8
- Relative Production of Stigma-Like Tissue Containing Saffron Pigment ([6]; alanine 0.005 g/l, NAA 0.1 ppm): 4
- Relative Color Density of Stigma-Like Tissue Containing Saffron Pigment ([6]; alanine 0.005 g/l, NAA 1.0 ppm): 8
- Relative Production of Stigma-Like Tissue Containing Saffron Pigment ([6]; alanine 0.005 g/l, NAA 1.0 ppm): 4
- Relative Color Density of Stigma-Like Tissue Containing Saffron Pigment ([6]; alanine 0.01 g/l, NAA 0.1 ppm): 8
- Relative Production of Stigma-Like Tissue Containing Saffron Pigment ([6]; alanine 0.01 g/l, NAA 0.1 ppm): 5
- Relative Color Density of Stigma-Like Tissue Containing Saffron Pigment ([6]; alanine 0.01 g/l, NAA 1.0 ppm): 8
- Relative Production of Stigma-Like Tissue Containing Saffron Pigment ([6]; alanine 0.01 g/l, NAA 1.0 ppm): 5
- Relative Color Density of Stigma-Like Tissue Containing Saffron Pigment ([6]; alanine 0.1 g/l, NAA 0.1 ppm): 9
- Relative Production of Stigma-Like Tissue Containing Saffron Pigment ([6]; alanine 0.1 g/l, NAA 0.1 ppm): 5
- Relative Color Density of Stigma-Like Tissue Containing Saffron Pigment ([6]; alanine 0.1 g/l, NAA 1.0 ppm): 9
- Relative Production of Stigma-Like Tissue Containing Saffron Pigment ([6]; alanine 0.1 g/l, NAA 1.0 ppm): 6
- Relative Color Density of Stigma-Like Tissue Containing Saffron Pigment ([6]; alanine 1.0 g/l, NAA 0.1 ppm): 9
- Relative Production of Stigma-Like Tissue Containing Saffron Pigment ([6]; alanine 1.0 g/l, NAA 0.1 ppm): 7
- Relative Color Density of Stigma-Like Tissue Containing Saffron Pigment ([6]; alanine 1.0 g/l, NAA 1.0 ppm): 9
- Relative Production of Stigma-Like Tissue Containing Saffron Pigment ([6]; alanine 1.0 g/l, NAA 1.0 ppm): 8
- Relative Color Density of Stigma-Like Tissue Containing Saffron Pigment ([6]; alanine 5.0 g/l, NAA 0.1 ppm): 9
- Relative Production of Stigma-Like Tissue Containing Saffron Pigment ([6]; alanine 5.0 g/l, NAA 0.1 ppm): 6
- Relative Color Density of Stigma-Like Tissue Containing Saffron Pigment ([6]; alanine 5.0 g/l, NAA 1.0 ppm): 8
- Relative Production of Stigma-Like Tissue Containing Saffron Pigment ([6]; alanine 5.0 g/l, NAA 1.0 ppm): 6
- Relative Color Density of Stigma-Like Tissue Containing Saffron Pigment ([6]; alanine 10.0 g/l, NAA 0.1 ppm): 8
- Relative Production of Stigma-Like Tissue Containing Saffron Pigment ([6]; alanine 10.0 g/l, NAA 0.1 ppm): 5
- Relative Color Density of Stigma-Like Tissue Containing Saffron Pigment ([6]; alanine 10.0 g/l, NAA 1.0 ppm): 8
- Relative Production of Stigma-Like Tissue Containing Saffron Pigment ([6]; alanine 10.0 g/l, NAA 1.0 ppm): 5
- Relative Color Density of Stigma-Like Tissue Containing Saffron Pigment ([6]; alanine 20.0 g/l, NAA 0.1 ppm): 8
- Relative Production of Stigma-Like Tissue Containing Saffron Pigment ([6]; alanine 20.0 g/l, NAA 0.1 ppm): 3
- Relative Color Density of Stigma-Like Tissue Containing Saffron Pigment ([6]; alanine 20.0 g/l, NAA 1.0 ppm): 7
- Relative Production of Stigma-Like Tissue Containing Saffron Pigment ([6]; alanine 20.0 g/l, NAA 1.0 ppm): 4
